In PubChem BioAssay AID179 (DTP/NCI, 2004):
Where “and” joins values, the source holds several entries; their conditions need not be identical. Equal entries are not always repeated. Calls of active or inactive are those of the source.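 How the source made its calls: active means compounds giving half or more protection of infected cells from virus-caused growth loss, again on retest; inactive means the rest.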

System: CEM cells HIV-1 protection, formazan growth assay
Test: NCI AIDS Antiviral Assay
Details: for IC50: measured here: growth of uninfected CEM cells
Method in brief: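 Protection of CEM cells against HIV-1 was scored from cell growth (soluble formazan) across five concentrations, with parallel uninfected cells. Lack of protection may reflect toxicity.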

SMILES | EC50 [µM] | IC50 | outcome
CC(C)N(C(C)C)[PH+]1O[PH+](N(C(C)C)C(C)C)O[PH+](N(C(C)C)C(C)C)O[PH+](N(C(C)C)C(C)C)O[PH+](N(C(C)C)C(C)C)O1.[C-]#[O+].[C-]#[O+].[C-]#[O+].[C-]#[O+].[C-]#[O+].[C-]#[O+].[C-]#[O+].[Cr].[Cr] (stereo not drawn) | > 25.1 | > 25.1 µM | 
CC(C)CCC[C@@H](C)C1CCC2[C@@H]3CCC4CC(=C(c5cc(Cl)c(O)c(C(=O)O)c5)c5cc(Cl)c(O)c(C(=O)O)c5)CC[C@]4(C)C3CC[C@@]21C (stereo partly drawn) | 47.9 | 148 µM | 
O=c1oc2ccccc2c(O)c1Cc1ccc(Cc2c(O)c3ccccc3oc2=O)cc1 | > 200 | 182 µM | 
CC1(C)COC(c2cc3c(cc2Br)OCO3)=N1 | > 209 | > 209 µM | 
CCSCCCSCCSCC | > 158 | > 158 µM | 
Cc1ccc(NCCN(C)C)c2c(=O)c3cc(O)ccc3oc12 | > 155 | 1.02 µM | 
CCOC(=O)/C=C/CCO[Si](C)(C)C(C)(C)C | > 200 | > 200 µM | 
CCOC(=O)C(=C/C=C/N[C@@H](Cc1c[nH]c2ccccc12)C(N)=O)C(=O)OCC | > 18.2 | > 18.2 µM | 
CC[N+](C)(C)CC(O)(O)C(F)F | > 200 | > 200 µM | 
C[C@]1(CI)OC(=O)N2CCC[C@H]21 | > 891 | > 891 µM | 
COC(=O)CCc1ccc(CCC(=O)OC)cc1 | > 200 | > 200 µM | 
O=C1Nc2ccccc2C1(O)Cc1ccccn1 (stereo not drawn) | > 1050 | > 1050 µM | 
O=C1/C(=C/c2ccc(Cl)cc2)NC(=S)N1CN1CCCCC1 | > 200 | 28.2 µM | 
COC(=O)C1=C(C(=O)OC)N(c2ccc(OC)cc2[N+](=O)[O-])C(c2ccc(C)cc2)=CC1c1ccc(OC)cc1OC (stereo not drawn) | > 100 | 3.02 µM | 
N#C/C(=C\NC(=S)NC1CCCCC1)c1nc2ccccc2s1 | > 200 | 41.7 µM | 
O=C(O)c1cc2ccccc2c(N=Nc2ccc(S(=O)(=O)Nc3nccs3)cc2)c1O | > 200 | 155 µM | 
C/C(=N\N(C)C)C(CN1CCCCC1)C(c1ccccc1)c1c(O)c2ccccc2oc1=O (stereo not drawn) | > 69.2 | > 69.2 µM | 
Cc1nc2cccc([N+](=O)[O-])c2c(NCCCN(C)C)c1C | > 200 | 40.7 µM | 
CSC(SC)=C(C(=O)c1ccc(Cl)cc1)n1c(=O)sc2cc(Br)ccc21 | > 200 | 12.3 µM | 
CCOC(=O)CC(=O)Nc1cccc2sc3ncccc3c(=O)c12 | > 200 | 30.2 µM | 
OCC1=CCN2C[C@@H](O)[C@@H](O)[C@@H]12 | > 200 | > 200 µM | 
C[Si](C)(/C(=C/COCc1ccccc1)CCOC1CCCCO1)c1ccccc1 (stereo not drawn) | > 9.12 | > 9.12 µM | 

SMILES | EC50 [µM] | IC50 | outcome
CCOC(=O)Nc1nc2c(s1)c([N+](=O)[O-])cn2C | > 69.2 | 27.5 µM | 
O=S1(=O)CCc2ccccc2C(Cl)C1 (stereo not drawn) | > 407 | > 407 µM | 
N#CC(NNC(=O)Cc1ccccc1)c1c(O)ccc2ccccc12 (stereo not drawn) | > 56.2 | 3.89 µM | 
Clc1cccc(-c2sc(-c3ccsc3)cc2Cc2ccsc2)c1 |  |  | inactive
O=S(=O)(O)SCC1=NCCN1 | > 200 | > 200 µM | 
[N-]=[N+]=NC1CC(n2cc(C(OCC(F)(F)F)OCC(F)(F)F)c(=O)[nH]c2=O)OC1CO (stereo not drawn) | 25.1 | 107 µM | 
O=C(NNC(=O)c1ccccc1S)c1ccccc1S | 4.17 | 14.5 µM | 
NC(=O)CNC(=O)c1ccccc1SC(=O)CCC[n+]1ccccc1 | 1.17 | 25.7 µM | 
O=c1[nH]c2nncn2c2ccccc12 | > 200 | > 200 µM | 
Cc1cn2c(=O)c3ncn(C4OC(CO)C(O)C4O)c3n(C)c2n1 (stereo not drawn) |  |  | inactive
CCCCCCCCC1=C(OC)C(=O)c2ccc(C)nc2C1=O |  |  | inactive
CCOC(OC1=C(C#N)CCC1)C(C)[Se]c1ccccc1 (stereo not drawn) | > 49 | 26.3 µM | 
CC(=O)OC/C=C/Cn1cnc(C(N)=O)c1N | > 200 | > 200 µM | 
CC(=O)NC1(C)CC[C@H]2CC1C(C)=NC2(C)C (stereo partly drawn) | > 1050 | > 1050 µM | 
C=CCn1c(-c2ccc(Cl)cc2Cl)csc1=Nc1c(C)n(C)n(-c2ccccc2)c1=O | > 200 | 6.61 µM | 
N#CC1C(C#N)C2CC1C1N=NN(c3ccccc3)C21 (stereo not drawn) | > 200 | > 200 µM | 
COc1ccc(/C=C2/NC(=S)N=C2Cl)cc1 | > 200 | > 200 µM | 
CCN(CC)C1=NS(=O)(=O)c2ccccc2C(SC)=C1C | > 275 | > 275 µM | 
COC(=O)/C=C(\C(=O)OC)c1c(C)c(C)c2c(C)cc(C)cc(C)c1-2 | > 200 | 16.6 µM | 
CC(C)CN(C[C@@H](O)[C@H](Cc1ccccc1)NC(=O)[C@H](CC(N)=O)NC(=O)c1ccc2ccccc2n1)C(=O)NC(C)(C)C |  | 93.3 µM | active
Cc1ccc([N+](=O)[O-])cc1NC(=O)/C(=N/NC(=S)NN)C1SC(=S)NC1=O (stereo not drawn) | > 302 | > 302 µM | 
CCOC(=O)COc1cccc2occc(=O)c12 |  |  | inactive

SMILES | EC50 [µM] | IC50 | outcome
CCCCCCC[CH2][Sn]([CH2]CCCCCCC)([O]c1cccc2cccnc12)[O]c1cccc2cccnc12 | > 21.4 | > 21.4 µM | 
COc1ccc(OC)c(N(CN2C(=O)CCC2C(=O)O)C(C)=O)c1 (stereo not drawn) | > 200 | > 200 µM | 
CCOC(=O)c1ccc(CS(=O)(=O)c2ccc([N+](=O)[O-])cc2)cc1 | > 53.7 | > 53.7 µM | 
N#CCCC/C(=N\O)C(=O)OCc1ccccc1 | > 200 | > 200 µM | 
Nn1c(-c2ccccc2Cl)nc2ccccc2c1=O |  |  | inactive
CCOC(=O)C(CC[C@H]1c2[nH]c3ccccc3c2C[C@@H](C#N)N1C(=O)C(F)(F)F)C(=O)OCC | > 20.9 | > 20.9 µM | 
CCOC(=O)CCCc1cc[c]([Sb](=[O])([OH])[OH])cc1 | > 200 | 72.4 µM | 
CC1(C)SC2C(NC(=O)C(C(=O)O)c3ccccc3)C(=O)N2C1C(=O)O (stereo not drawn) | > 200 | > 200 µM | 
CC(=O)OCCCCN1C(=O)CSc2ccccc21 | > 200 | > 200 µM | 
CCCCCC/C=C\CCCCCCCCCC1=CC(=O)C=C(OC)C1=O | > 9.55 | > 9.55 µM | 
COc1cccc(CCn2c(N)c(-c3cc(Cl)cc(Cl)c3)c3ccc([N+](=O)[O-])cc3c2=O)c1 | > 200 | 3.39 µM | 
O=C1C2CCC(N1CCc1ccccc1)n1c(=O)n(-c3ccccc3)c(=O)n12 (stereo not drawn) | > 200 | > 200 µM | 
CCC(C)[P+](c1ccccc1)(c1ccccc1)c1ccccc1 (stereo not drawn) | > 200 | 2.63 µM and 2.51 µM | 
Clc1cccc(C2N3CCCCC3[C@@H]3c4[nH]c5ccccc5c4CCN23)c1 (stereo partly drawn) | > 13.8 | > 13.8 µM | 
C[n+]1cn(C2=C([O-])c3ccccc3C(=O)/C2=N\S(=O)(=O)c2ccccc2)c2ccccc21 | > 151 | 126 µM | 
C[C@H](CCCN1CCOCC1)[C@H]1CC[C@H]2[C@@H]3CC[C@@H]4C[C@H](O)CC[C@]4(C)[C@H]3CC[C@]12C | > 50.1 | 9.12 µM | 
COc1cccc(C2=NC(C(C)(C)C)CO2)c1-c1ccccc1C1OCCO1 (stereo not drawn) | > 339 | > 339 µM | 
COC(=O)c1sc2c(=O)c(C(=O)OC)c(C(=O)OC)sc2c(=O)c1C(=O)OC | > 151 | 12 µM | 
CCOC(=O)c1nn2c(nc1=O)sc1ccc3ccccc3c12 | > 69.2 | > 69.2 µM | 
O=S(=O)(O)CC(O)CSSCC(O)CS(=O)(=O)O (stereo not drawn) | > 200 | > 200 µM | 
CC(C)(C)c1ccc(Br)c(CCC(=O)NO)c1 |  |  | inactive
CC1(C)C(c2ccccc2)=NN(O)c2ccccc21 |  |  | inactive

SMILES | EC50 [µM] | IC50 | outcome
N#Cc1nc(C(=O)c2ccccc2)oc1N | > 200 | > 200 µM | 
COC(=O)C1(c2ccc(N(C)C)cc2OC)CCCN(C(=O)Oc2ccccc2[N+](=O)[O-])CCc2c1[nH]c1ccccc21 (stereo not drawn) | > 200 | > 200 µM | 
Cc1[nH]c2[nH]c(=S)nc(NC(N)=S)c2c1Cc1ccccc1 | > 100 | 41.7 µM | 
CO/C(N)=C(\C#N)N=Cc1ccc2ccccc2c1 | > 200 | 37.2 µM | 
CCCCCC[P+](c1ccccc1)(c1ccccc1)c1ccccc1 | > 200 | 0.741 µM | 
C=CCC1(c2ccccc2)Oc2cccnc2-n2cccc2C1=O (stereo not drawn) | > 200 | 8.91 µM | 
C[C@H](CCC(=O)O[C@@H]1CC[C@@]2(C)C(CC[C@H]3[C@@H]4CC[C@H]([C@H](C)CCc5nc6ccccc6[nH]5)[C@@]4(C)CC[C@@H]32)C1)[C@H]1CC[C@H]2[C@@H]3CCC4C[C@H](O)CC[C@]4(C)[C@H]3CC[C@]12C (stereo partly drawn) | > 100 | > 100 µM | 
OCC1OC2NC(=S)OC2C(O)C1O (stereo not drawn) | > 200 | > 200 µM | 
Cc1ccc(S(=O)(=O)N2C[C@H](O)C[C@H]2C(=O)O)cc1 |  |  | inactive
Clc1ccc(/C(=C/c2ccccc2)Cn2ccnc2)cc1 | > 200 | 35.5 µM | 
O=C(Nc1cc(Cl)c(Cl)cc1NC(=O)C(Cl)(Cl)Cl)C(Cl)(Cl)Cl | > 200 | 0.417 µM | 
O=C(O)c1cc(C(=CCCBr)c2cc(Cl)c(O)c(C(=O)O)c2)cc(Cl)c1O | 117 | 219 µM | 
N#CC1(N2CCCC2)CCC2(CC1)OCCO2 |  |  | inactive
O=C(N/N=C/c1ccco1)c1ccc(OCc2nc3ccccc3[nH]2)cc1 | > 200 | 83.2 µM | 
Cc1ccccc1NC(=O)CC(=O)n1nc(-c2ccccc2)c(N=Nc2ccc([N+](=O)[O-])cc2)c1-c1ccccc1 | > 25.1 | 16.2 µM | 
C=CCn1c(=S)[nH]c2c(Cl)cc(Cl)cc2c1=O | > 200 | 107 µM | 
CC(C)(C)C(=O)[O-].N.N.N.N.N.[Co+3].[O-][Cl+3]([O-])([O-])[O-] |  |  | inactive
CCOC(=O)/C=C/c1ccc(F)cc1 | > 97.7 | > 97.7 µM | 
O=C1c2ccccc2C(=O)C1(O)c1c[nH]c2ccccc12 | > 912 | 64.6 µM | 
CCCCN(CCCC)CCCOC(=O)c1ccc2oc3ccc(C(=O)OCCCN(CCCC)CCCC)cc3c2c1 | > 38.9 | 10.5 µM | 
CC1(C)CCC(Sc2ccccc2)O1 (stereo not drawn) |  |  | inactive
